Laboratory results taken from patent US20220265629A1, “TREATMENT OF SYSTOLIC DYSFUNCTION AND HEART FAILURE WITH REDUCED EJECTION FRACTION WITH THE COMPOUND (R)-4-(1-((3-(DIFLUOROMETHYL)-1-METHYL-1H-PYRAZOL-4-YL)SULFONYL)-1-FLUOROETHYL)-N-(ISOXAZOL-3-YL)PIPERIDINE-1-CARBOXAMIDE” (MyoKardia, Inc., priority 2019, published 2022).
Read-outs that look alike come from different tables or passages of the source.

Assay: Single ascending oral dose study in healthy volunteers: plasma pharmacokinetics
Type: in vivo, human
Conditions: for Plasma concentration, Mean / concentration at 6 h: 6 Hours Postdose; for concentration at 6 h / concentration at 12 h / concentration at 24 h / concentration at 48 h / concentration at 72 h / AUC(0-t) / AUC(0-inf) / Cmax / half-life / MRT / Tmax / Vd/F: human, plasma, oral; for concentration at 12 h: 12 Hours Postdose; for concentration at 24 h: 24 Hours Postdose; for concentration at 48 h: 48 Hours Postdose; for concentration at 72 h: 72 Hours Postdose
Source text: This example describes the first-in-human study of Compound I. Based on its mechanism of action, Compound I may offer a targeted therapy for patients with DCM caused by genetic or nongenetic mechanisms. The study was a randomized, double-blind, placebo-controlled, sequential group, single-ascending (oral) close study in healthy subjects aged 18-55 years. Eight dosing cohorts, each comprising eight healthy subjects, were enrolled. Within each cohort, subjects were randomized 6:2 to Compound I:placebo.
Subjects were resident at the clinical site for up to 5 days and 4 nights, from Day −1 (the day before dosing) to Day 4, and received a single dose of Compound I or placebo on Day 1. ECG telemetry was initiated 1 hour preclose and continued through 48 hours postclose (Day 3). Any subject with a preclose resting HR≥80 beats per minute was considered ineligible and not treated. […] Subjects returned for a safety follow-up visit 7 days (±1 day) after dosing.
All randomized study subjects received either Compound I or matching placebo as a single oral dose after a fasting period of at least 6 hours. Compound I drug substance is a crystalline, free-base, synthetic molecule with a molecular weight of 435.4 g/mol.
Compound I was provided as a powder for oral suspension. Placebo was provided as calcium carbonate powder. Both treatments were closed orally as a suspension. The suspension was made using Ora-Plus® suspending vehicle (Perrigo) and a cherry syrup flavoring vehicle (Humco), mixed 50% to 50%. The suspension was followed by approximately 100 mL water. The suspension was made up within 14 days from the time in which it was closed which was consistent with the stability data on the suspension. The suspension was made up so the volume administered to the subjects who received Compound I was the same at 20 mL.
Each subject received a close according to the cohort in which they were enrolled. Cohorts were enrolled sequentially, with each cohort receiving an escalated dose of Compound I. The closes administered were 3 mg, 10 mg, 25 mg, 50 mg, 100 mg, 175 mg, 350 mg, and 525 mg, respectively.
The concentrations of Compound I in human plasma and urine were quantitated by high performance liquid chromatography with tandem mass spectrometric detection (LC MS/MS) (Biological sample analysis study report Alturas AD17-726). Plasma samples were extracted by protein precipitation with acetonitrile containing internal standard MYK-5654. The calibration curves were linear over concentration range of 0.500 to 1000 ng/mL with a lower limit of quantification (LLOQ) of 0.500 ng/mL.
The PK Population included all subjects who received Compound I. Blood samples were collected for PK assessments. The actual timing of the samples may have been modified and/or up to an additional 2 samples may have been requested by the SRC after review of the data from previous cohorts. It was important that PK sampling occurred as closely as possible to the scheduled time (±10%). Both blood and urine samples were used for PK assessments.
In addition, for subjects who received placebo, a single plasma sample near the predicted tmax of Compound I was evaluated to confirm the lack of circulating Compound I. Plasma concentration data for Compound I was summarized using descriptive statistics, including mean, standard deviation (SD), median, minimum, and maximum values, and percent coefficient of variation. Other PK parameters included (but were not limited to) Cmax, tmax, AUC, t1/2, and MRT. Additionally, the apparent terminal-phase terminal half-life was calculated. The close proportionality of AUC and Cmax was explored.

[1] = 3 mg, 3 mg, read-out: Plasma concentration, Geometric Mean
[2] = 3 mg, 3 mg, read-out: Plasma concentration, Mean
[3] = 3 mg, 3 mg, read-out: Plasma concentration, Median
[4] = 10 mg, 10 mg, read-out: Plasma concentration, Geometric Mean
[5] = 10 mg, 10 mg, read-out: Plasma concentration, Mean
[6] = 10 mg, 10 mg, read-out: Plasma concentration, Median

## Cn1cc(S(=O)(=O)[C@@](C)(F)C2CCN(C(=O)Nc3ccon3)CC2)c(C(F)F)n1 [Compound I, (R)-4-(1-((3-(difluoromethyl)-1-methyl-1H-pyrazol-4-yl)sulfonyl)-1-fluoroethyl)-N-(isoxazol-3-yl)piperidine-1-carboxamide]
3 mg
  CL/F, Geometric Mean: 4.15 L/h
  CL/F, Mean: 4.26 L/h
  CL/F, Median: 4.22 L/h
  Extrapolation, Geometric Mean: 2.71%
  Extrapolation, Mean: 2.78%
  Extrapolation, Median: 2.82%
10 mg
  CL/F, Geometric Mean: 2.99 L/h
  CL/F, Mean: 3.06 L/h
  CL/F, Median: 2.88 L/h
  Extrapolation, Geometric Mean: 1.59%
  Extrapolation, Mean: 1.90%
  Extrapolation, Median: 2.24%
25 mg
  CL/F, Geometric Mean: 3.55 L/h
  CL/F, Mean: 3.69 L/h
  CL/F, Median: 3.32 L/h
  Extrapolation, Geometric Mean: 1.45%
  Extrapolation, Mean: 1.72%
  Extrapolation, Median: 1.92%
50 mg
  CL/F, Geometric Mean: 4.47 L/h
  CL/F, Mean: 4.53 L/h
  CL/F, Median: 4.46 L/h
  Extrapolation, Geometric Mean: 0.46%
  Extrapolation, Mean: 0.91%
  Extrapolation, Median: 0.46%
100 mg
  CL/F, Geometric Mean: 4.69 L/h
  CL/F, Mean: 4.76 L/h
  CL/F, Median: 5.33 L/h
  Extrapolation, Geometric Mean: 0.36%
  Extrapolation, Mean: 5.48%
  Extrapolation, Median: 0.14%
175 mg
  CL/F, Geometric Mean: 4.57 L/h
  CL/F, Mean: 4.66 L/h
  CL/F, Median: 4.45 L/h
  Extrapolation, Geometric Mean: 0.14%
  Extrapolation, Mean: 0.17%
  Extrapolation, Median: 0.16%
350 mg
  CL/F, Geometric Mean: 4.75 L/h
  CL/F, Mean: 4.95 L/h
  CL/F, Median: 4.75 L/h
  Extrapolation, Geometric Mean: 0.37%
  Extrapolation, Mean: 0.60%
  Extrapolation, Median: 0.43%
  Plasma concentration, Mean: 2660.000 ng/mL
350 mg + 525 mg
  AUC0-∞, Mean: 74358.88 ng·h/mL
  CL/F, Geometric Mean: 6.04 L/h
  CL/F, Mean: 6.51 L/h
  CL/F, Median: 6.10 L/h
  Extrapolation, Geometric Mean: 0.29%
  Extrapolation, Mean: 0.59%
  Extrapolation, Median: 0.32%
  Tmax, Mean: 4.96 h
  Plasma concentration, Mean: 2437.500 ng/mL
525 mg
  CL/F, Geometric Mean: 7.66 L/h
  CL/F, Mean: 8.07 L/h
  CL/F, Median: 7.64 L/h
  Extrapolation, Geometric Mean: 0.22%
  Extrapolation, Mean: 0.59%
  Extrapolation, Median: 0.23%
  Plasma concentration, Mean: 2215.000 ng/mL
All dose groups, 95% CI 0.8358-0.9417
  dose proportionality, power model slope: 0.8888
[1]
  concentration at 6 h: 35.2 ng/mL
  concentration at 12 h: 21.5 ng/mL
  concentration at 24 h: 11 ng/mL
  concentration at 48 h: 2.29 ng/mL
[2]
  concentration at 6 h: 35.8 ng/mL
  concentration at 12 h: 21.9 ng/mL
  concentration at 24 h: 11.3 ng/mL
  concentration at 48 h: 2.7 ng/mL
  concentration at 72 h: 0.586 ng/mL
[3]
  concentration at 6 h: 33.5 ng/mL
  concentration at 12 h: 21.7 ng/mL
  concentration at 24 h: 10.8 ng/mL
  concentration at 48 h: 2.34 ng/mL
  concentration at 72 h: 0.449 ng/mL
3 mg, read-out: AUC0-24, Geometric Mean
  AUC(0-t): 514 ng·h/mL
3 mg, read-out: AUC0-24, Mean
  AUC(0-t): 521 ng·h/mL
3 mg, read-out: AUC0-24, Median
  AUC(0-t): 504 ng·h/mL
3 mg, read-out: AUC0-48, Geometric Mean
  AUC(0-t): 676 ng·h/mL
3 mg, read-out: AUC0-48, Mean
  AUC(0-t): 689 ng·h/mL
3 mg, read-out: AUC0-48, Median
  AUC(0-t): 678 ng·h/mL
3 mg, read-out: AUC0-last, Geometric Mean
  AUC(0-t): 702 ng·h/mL
3 mg, read-out: AUC0-last, Mean
  AUC(0-t): 721 ng·h/mL
3 mg, read-out: AUC0-last, Median
  AUC(0-t): 713 ng·h/mL
3 mg, read-out: AUC0-∞, Geometric Mean
  AUC(0-inf): 722 ng·h/mL
3 mg, read-out: AUC0-∞, Mean
  AUC(0-inf): 741 ng·h/mL
3 mg, read-out: AUC0-∞, Median
  AUC(0-inf): 730 ng·h/mL
3 mg, read-out: Cmax, Geometric Mean
  Cmax: 37.6 ng/mL
3 mg, read-out: Cmax, Mean
  Cmax: 38.2 ng/mL
3 mg, read-out: Cmax, Median
  Cmax: 36.5 ng/mL
3 mg, read-out: Half-Life Lambda Z, Geometric Mean (converted)
  half-life: 11.1 h
3 mg, read-out: Half-Life Lambda Z, Mean (converted)
  half-life: 11.3 h
3 mg, read-out: Half-Life Lambda Z, Median (converted)
  half-life: 11.2 h
3 mg, read-out: Mean Residence Time, Geometric Mean
  MRT: 17.3 h
3 mg, read-out: Mean Residence Time, Mean
  MRT: 17.5 h
3 mg, read-out: Mean Residence Time, Median
  MRT: 16.8 h
3 mg, read-out: Tmax, Geometric Mean
  Tmax: 4.33 h
3 mg, read-out: Tmax, Mean
  Tmax: 4.46 h
3 mg, read-out: Tmax, Median
  Tmax: 4 h
3 mg, read-out: Vz/F, Geometric Mean
  Vd/F: 66.5 L
3 mg, read-out: Vz/F, Mean
  Vd/F: 66.9 L
3 mg, read-out: Vz/F, Median
  Vd/F: 65.4 L
[4]
  concentration at 6 h: 129 ng/mL
  concentration at 12 h: 92.8 ng/mL
  concentration at 24 h: 56.3 ng/mL
  concentration at 48 h: 15.8 ng/mL
[5]
  concentration at 6 h: 131 ng/mL
  concentration at 12 h: 94.2 ng/mL
  concentration at 24 h: 57.8 ng/mL
  concentration at 48 h: 16.4 ng/mL
[6]
  concentration at 6 h: 137 ng/mL
  concentration at 12 h: 97.8 ng/mL
  concentration at 24 h: 61.5 ng/mL
